Entries after “also recorded” stand apart in the source; their conditions may differ. Where two headings read alike, the source gives them in different places. Blank lines part the entries; values can stand above or below the compound they belong to.
Key:
C. parvum (Iowa strain) = experiment: NOD SCID gamma immunocompromised mouse model of cryptosporidiosis (fecal oocyst shedding by qPCR); type: in vivo, Cryptosporidium parvum
From the text: A NOD SCID gamma mouse model was used for in vivo testing of confirmed screening hits. NOD SCID gamma mice (Jackson Laboratories) develop Cryptosporidium parvum infection following oral gavage that is characterized by persistent infection of the small intestinal and cecal epithelium. The mice remain asymptomatic and gain weight normally. Infection is established by oral gavage of 1×10^4 C. parvum (Iowa strain) oocysts on day −6. Fecal parasite shedding is quantified by quantitative PCR of genomic DNA, using a standard curve generated by spiking oocysts into fecal samples from uninfected mice. Fecal oocyst shedding reliably becomes detectable at day 1 (1 week after infection). Experimental compounds are administered by oral gavage of 30 mg/kg in DMSO:1% HPMC (5:95) twice daily for 4 days. Parasite shedding is compared to that for infected mice treated with drug carrier alone (i.e. DMSO:1% HPMC (5:95)).
Results for treatment of C. parvum infected NOD SCID gamma mice with DMSO or selected MMV Malaria Box screening hits with confirmed in vitro activity given by oral gavage of 30 mg/kg twice daily on days 1-4 can be seen in FIG. 2. Cryptosporidium parvum infection was established on day −6. Parasite shedding is detectable in all animals on day 1. […] Other compounds and DMSO had no effect. Data shown are the mean and SE for parasites detected/mg of feces (n=4 animals per treatment group).
A repeat of the experiment presented in FIG. 2 showing efficacy of MMV665917 in the NOD SCID gamma mouse model is presented in FIG. 5. […] For this experiment, NOD SCID gamma mice were infected on day −6 by oral gavage of C. parvum oocysts, shedding was detected at day 0 prior to compound dosing, compounds or vehicle were dosed on days 0-6 as indicated, and mice were maintained for one week following cessation of treatment. Data shown are the mean and SE for the number of oocysts/mg stool detected by real time PCR of the feces on the indicated day (four mice per experimental group).

C. parvum Iowa strain = experiment: Static or cidal assay: C. parvum persistence in HCT-8 cells at multiples of the EC90; type: cell-based, Cryptosporidium parvum; conditions: compound added 24 hours after infection of HCT-8 cells (FIG. 7)
Protocol: HCT-8 cell monolayers are infected and parasites are allowed to replicate for 24 hours before addition of experimental drug compounds. Parasite numbers are then measured at different time points following compound addition by epifluorescence microscopy, using the same method as used in FIG. 1.
To assess if MMV665917 is cidal or static for C. parvum and determine the concentration of compound required to maximize the rate of parasite elimination, C. parvum persistence in HCT-8 colonic carcinoma cells was assayed in the presence of increasing multiples of the in vitro EC90. Briefly, the assay infects HCT-8 intestinal epithelial cells with the C. parvum Iowa strain as in Example 1. Parasites are then allowed to develop for 24 hours prior to the addition of the indicated concentration of experimental compounds (time 0 in the graphs above). At the indicated times following compound addition, samples are then fixed, the host cells and parasites are fluorescently stained, and parasites are enumerated by automated epifluorescence microscopy and image process as described in Example 1.

[1] = Pharmacokinetics in male Sprague Dawley rats (IV and oral); type: in vivo, rat
Protocol: The pharmacokinetics of MMV665917 were studied in overnight-fasted male Sprague Dawley rats that had access to water ad libitum throughout the pre- and post-dose sampling period, and access to food was re-instated 4 h (hour) post-dose. MMV665917 was administered intravenously as a 10 min (minute) constant rate infusion via an indwelling jugular vein cannula (1 mL per rat, n=2 rats) and orally by gavage (10 mL/kg per rat, n=2 rats). Samples of arterial blood and total urine were collected up to 24 h post-dose. Arterial blood was collected directly into borosilicate vials (at 4° C.) containing heparin, Complete® (a protease inhibitor cocktail), potassium fluoride, and EDTA to minimise potential for ex vivo degradation of test compound in blood/plasma samples. Once collected, blood samples were centrifuged, supernatant plasma was removed and stored frozen (−20° C.) until analysis by LC-MS. IV Formulation. MMV665917 was dissolved in propylene glycol and ethanol before Milli-Q water was added producing a clear solution. The formulation was filtered through a 0.22 μm syringe filter prior to dosing, and the measured concentration of compound the filtered solution was 0.24 mg/mL. Oral Formulation. MMV665917 was wet milled in HPMC-SV in an agate mortar and sonicated for 10 minutes producing a uniform suspension. The bulk formulation was mixed by inverting the tubes prior to drawing each dosing volume and the average measured concentration of compound in aliquots (n=3) of formulation was 0.32 mg/mL (range 0.28-0.37 mg/mL).

[2] = In vitro plasma/blood stability and whole blood-to-plasma ratio; type: in vitro ADME, rat; conditions: 37° C.
Protocol: In Vitro Determination of Plasma/Blood Stability and Whole Blood-to-Plasma Ratio. MMV665917 was spiked into fresh heparinized whole blood (collected from male Sprague Dawley rats) or plasma of a corresponding volume (which acted as a matrix control) to an initial nominal concentration of 500 ng/mL. As a whole blood assay for the compound was not available, the concentration of MMV665917 in the spiked plasma (i.e. matrix control) was used as a surrogate measurement of the spiked whole blood concentration. Whole blood samples were incubated at 37° C. for up to 240 min after which plasma and erythrocytes were separated by centrifugation prior to determination of plasma concentrations by LC-MS. Whole blood-to-plasma partitioning ratios (B/P) were obtained by dividing the measured concentration in the plasma control sample by the concentration measured in plasma following centrifugation of whole blood.

[3] = Mouse plasma concentration, single oral dose and simulated BID dosing; type: in vivo
Protocol: Compounds were dosed as indicated either orally by oral gavage or intravenously, and serum samples were collected at the indicated time points. The MMV665917 plasma concentration was measured by LC-MS/MS.
(§1) Mouse serum concentrations measured from a single 55 mg/kg oral dose of MMV665917 (see above figure) were used to simulate the mouse serum concentrations following BID dosing of either 30 mg/kg or 60 mg/kg. The measured calf plasma concentration following a single 22 mg/kg oral dose is also shown. Note that a minimum concentration of EC90 was required for parasite elimination in vitro, and the rate of parasite elimination in vitro was maximized at 3× the EC90 concentration.
as §1, with “The actual and simulated mouse and calf plasma concentrations for MMV665917, correlated to the EC90 and 3×EC90 concentrations are shown in FIG. 9. Mouse” for “Mouse”, “(FIG. 9)” for “(see above figure)”

C. parvum = C. parvum growth inhibition in HCT-8 cells, in vitro dose response (immunofluorescence); type: cell-based; conditions: Cryptosporidium parvum; C. parvum in HCT-8 cells; plate control of the screen; read-out: 90% inhibitory concentration (IC90)
Protocol: Materials and Methods: Cell culture and Cryptosporidium infections: The high throughput screen for C. parvum growth inhibitors was carried out using human ileocecal adenocarcinoma (HCT-8) cells (ATCC) maintained in RPMI 1640 medium with HEPES, sodium pyruvate (1 mM) and L-glutamate with 10% horse serum (ATCC) supplemented with 120 U/mL penicillin and 120 μg/mL streptomycin. HCT-8 cells were grown to confluence in 384-well, tissue culture-treated, black-walled, clear-bottom microwell plates (BD Falcon). […]
Infected monolayers were washed three times with PBS containing 111 mM D-galactose using an EL406 automated plate washer (Biotek), fixed with 4% paraformaldehyde, permeabilized with 0.25% Triton X-100 in PBS, and then blocked with 4% bovine serum albumin (BSA). Vegetative forms of C. parvum were detected by the addition of biotinylated Vicia villosa lectin (VVL; Vector Laboratories) and streptavidin-conjugated Alexa Fluor 568 (Invitrogen) diluted in PBS with 1% BSA and 0.1% Tween 20. […]
ImageJ outputs were imported into Microsoft Excel for data organization and analysis. Percent inhibition was calculated (equation 1) for each well in order to normalize the data and to facilitate the combination of data from individual biological replicates. […]

Cryptosporidium = conditions: cited from earlier work
[4] = 30 mg/kg twice daily oral gavage, days 1-4 (FIG. 2)

half-life ([1]; male, Sprague Dawley, rat, plasma, 0.24 mg per rat, rats, IV administration, read-out: apparent terminal half-life): 3 to 4 h
bioavailability ([1]; male, Sprague Dawley, rat, plasma, po, 3.2 mg/kg, rats, oral administration, read-out: apparent oral bioavailability): 24 to 43%
apparent volume of distribution ([1]; rats, IV administration): moderate
in vivo clearance ([1]; rats, IV administration): low
time plasma concentrations remained above the analytical LLQ ([1]; rats, IV administration): 16 h
fraction of the dose recovered in urine as intact compound ([1]; rats, IV, 24 h sampling period): approximately 25%
absorption ([1]; rats, oral administration): slowly absorbed
time of maximum plasma concentrations ([1]; rats, oral administration): 5 h post-dose
stability in rat plasma and whole blood ([2]; up to 240 min, 500 ng/mL): stable
blood plasma ratio at 500 ng/mL ([2]; male, Sprague Dawley, fresh heparinized whole blood, rat blood, read-out: apparent in vitro whole blood to plasma partitioning ratio (B/P)): 1.1
intestinal absorption ([3]; mouse (FIG. 4)): slow
serum half-life ([3]; mouse (FIG. 4)): prolonged
systemic exposure ([3]; mouse (FIG. 4)): moderate
time to peak serum concentration ([3]; mouse, single dose (FIG. 4)): 6 h
Structure (SMILES): O=C(Nc1ccc(Cl)cc1)N1CCN(c2ccc3nncn3n2)CC1 [MMV665917]
efficacy across the two experiments (C. parvum (Iowa strain); 30 mg/kg BID (effective in FIG. 2, ineffective in FIG. 5)): variable efficacy; also recorded: variably efficacious
parasite shedding (oocysts/mg feces) (C. parvum (Iowa strain); [4]): significantly reduced parasite shedding
persistence of reduced parasite shedding following cessation of treatment (C. parvum (Iowa strain); [4]): > 3 days
efficacy on C. parvum shedding, repeat experiment (C. parvum (Iowa strain); 30 mg/kg twice daily oral gavage, seven days (FIG. 5)): inactive; also recorded: not effective
efficacy on C. parvum shedding, repeat experiment (C. parvum (Iowa strain); 60 mg/kg twice daily oral gavage, seven days (FIG. 5)): eliminated detection of C. parvum shedding in the feces; also recorded: cured; also recorded: curative
relapse over the week following cessation of treatment (C. parvum (Iowa strain); 60 mg/kg twice daily, seven days (FIG. 5)): no relapse was observed
static or cidal for C. parvum (C. parvum Iowa strain): cidal
haemolysis in plasma ([1]; rat, in vivo, iv): Evidence of haemolysis was observed
adverse reactions or compound related side effects ([1]; rats, following IV or oral administration): No adverse reactions or compound related side effects were observed
apparent terminal half-life ([1]; rats, oral administration): consistent with that observed after IV dosing
plasma/serum concentration relative to the EC90 / 3×EC90 ([3]; mouse, 30 mg/kg BID, simulated from single 55 mg/kg oral dose): exceeds the EC90 for just over ½ the dosing interval; also recorded: not attained

IC90 (C. parvum): 6.6 µM
Structure (SMILES): CC(=O)Oc1ccccc1C(=O)Nc1ncc([N+](=O)[O-])s1 [nitazoxanide]
activity in the NOD SCID gamma mouse model (C. parvum (Iowa strain); dose not stated): lacks activity
static or cidal for C. parvum (C. parvum Iowa strain): static
efficacy in cryptosporidiosis (Cryptosporidium; AIDS patients / immunocompromised people): lacks activity
efficacy in cryptosporidiosis (Cryptosporidium; AIDS patients / immunocompromised people, listed as Nitazoxanide): no more effective than placebo
efficacy in cryptosporidiosis (Cryptosporidium; children): partial efficacy

Structure (SMILES): NC[C@@H]1O[C@H](O[C@H]2[C@@H](O)[C@H](O[C@@H]3[C@@H](O)[C@H](N)C[C@H](N)[C@H]3O[C@H]3O[C@H](CO)[C@@H](O)[C@H](O)[C@H]3N)O[C@@H]2CO)[C@H](N)[C@@H](O)[C@@H]1O [paromomycin, reference compound]
relapse after treatment cessation (C. parvum (Iowa strain); 1000 mg/kg twice daily, positive control (FIG. 5)): relapsed quickly after treatment cessation

From US11229649B2, “Methods for treating cryptosporidiosis using triazolopyridazines” (University of Vermont and State Agricultural College, priority 2015, dated 2022)
